Key:
murine CD8^+ T cells = test: Cell growth and viability of murine CD8^+ T cells; type: cell-based; conditions: 7 days
Protocol: After 7 days of culture, we assessed the abundance of CD62L^hiCD44^hi (TCM-like) T cells by flow cytometry (Fig. 1a). We additionally determined the effect of each compound on cell growth and viability (Fig. 1b and Extended Data Fig. 1a).
B16F10 cells were originally purchased from ATCC (catalogue no. CRL-6475) and genetically modified to express OVA, enhanced green fluorescent protein (GFP) and neomycin phosphotransferase. The resulting OVA expression B16F10-OVA cells were cultured in DMEM (catalogue no. 11995065, Thermo Fisher Scientific) containing 0.75 mg ml^−1 G418 sulphate (catalogue no. 10131027, Thermo Fisher Scientific). HEK 293T cells were purchased from Takara Bio (catalogue no. 632180) and cultured in DMEM. SKOV3 was purchased from ATCC (catalogue no. HTB-77) and cultured in McCoy’s 5A (Modified) Medium (catalogue no. 16600082, Thermo Fisher Scientific). Raji-GFP-Luc cells were purchased from Biocytogen (catalogue no. B-HCL-010) and cultured in Roswell Park Memorial Institute (RPMI) 1640 (catalogue no. 21875, Thermo Fisher Scientific). Jurkat cells were purchased from ATCC (catalogue no. TIB-152) and cultured in RPMI 1640. RAW 264.7 cells were purchased from ATCC (catalogue no. TIB-71) and cultured in RPMI 1640. HeLa cells were a gift from P. Lehner (University of Cambridge) and were authenticated using short tandem repeat profiling (Eurofins Genomics). HeLa cells were cultured in DMEM. MEFs were isolated from macerated embryonic day (E) 12.5–13.5 embryos. A whole litter of embryos without sex selection were used. Stable transfection with SV40 large T antigen passage 3 was used for immortalization. Cells were subcultured over 17 more passages and maintained in DMEM[63]. All media was supplemented with 10% FCS (catalogue no. 10270106, Gibco), 100 U ml^−1 penicillin and 100 µg ml^−1 streptomycin (catalogue no. P4333, Sigma-Aldrich). […] Cell number and viability was determined using the ADAM-MC Automated Cell Counter (NanoEntek), CellDrop Automated Cell Counter (DeNovix) or TC20 Automated Cell Counter (Bio-Rad Laboratories). […]

[1] = tested on: H3 lysine methylation in human CD8^+ T cells; test: Histone 3 methylation western blot; type: cell-based; conditions: 7 days
Protocol: Histones were extracted with the Histone Extraction Kit (catalogue no. ab113476, Abcam). Proteins were separated by SDS–PAGE and transferred to polyvinylidene fluoride (PVDF) membranes. Total protein stain was obtained using non-stain protein labelling reagent (catalogue no. A44448, Thermo Fisher Scientific). Membranes were then blocked in 5% milk prepared in PBS plus 0.05% Tween-20, incubated with primary antibodies overnight at 4 °C and horseradish peroxidase (HRP)-conjugated secondary antibodies (catalogue nos. HAF008 and HAF007, R&D Systems) for 1 h the next day. After enhanced chemiluminescence (ECL) exposure (catalogue no. GERPN2106, Sigma-Aldrich), membranes were imaged using an iBrightCL1000 (Thermo Fisher Scientific). […] 13998); and anti-H3k27ac (catalogue no.

SMILES	concentration from which cell growth is decreased (murine CD8^+ T cells)	H3K9me2 levels on addition of αKG to DEG ([1]; 500 µM αKG with 500 µM DEG)	DEG-induced increase in H3K9 and H3K27 trimethylation on addition of αKG ([1]; equimolar αKG (500 µM) with 500 µM DEG)
CCCCCCCCOC(=O)[C@@H](O)CCC(=O)[O-].[Na+] [octyl ester S-2HG, (2S)-2-hydroxyglutaric acid octyl ester sodium salt, reference compound]	≥ 400 µM		
O=C(O)CCC(=O)C(=O)O [αKG, α-ketoglutarate, reference compound]		not reduced	abrogated

— PMC10590756, “Glutarate regulates T cell metabolism and anti-tumour immunity” (Nature Metabolism, 2023)
